Test results reported in US9090583B2, “Benzopyrone estrogen receptor regulator” (BEIJING SHENOGEN PHARMA GROUP LTD., priority 2010, dated 2015).
Converted amounts (≈) assume the structure as drawn. Like-named read-outs stand apart in the source and are kept apart here.

Tests used:
MDA-MB-231 cells = assay: CellTiter-Glo Luminescent Cell Viability Assay on ER-negative breast cancer MDA-MB-231 cells; type: cell-based; settings: average ± standard deviation when tested more than 3 times, read-out: Inhibition of the viability of breast cancer cells, IC50
Method in brief: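 Cells seeded at 6×10^3 per well in DMEM with 10% FCS and exposed 72 h to compound at 0 to 100 μM (twelve concentrations, DMSO vehicle). Viability measured by CellTiter-Glo luminescence.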

MCF7 cells = assay: CellTiter-Glo Luminescent Cell Viability Assay on ER-positive breast cancer MCF-7 cells; type: cell-based, human; settings: average ± standard deviation when tested more than 3 times, read-out: Inhibition of the viability of breast cancer cells, IC50
Method in brief: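 MCF7 cells (DMEM, 10% FCS, 37 °C) treated 72 h with compound at 0–100 μM (0.3, 0.5, 1, 2, 3, 5, 10, 20, 30, 50, 100 μM). Viability measured by CellTiter-Glo luminescence.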

HL-60 cells = assay: CellTiter-Glo Luminescent Cell Viability Assay on leukemia HL-60 cells; type: cell-based, human; settings: 72 hours, read-out: Inhibition of the viability of leukemia cells, IC50
Experimental: B: In Vitro CellTiter-Glo® Luminescent Cell Viability Assay on Leukemia HL-60 Cells
(§1) The leukemia HL-60 cells were obtained from ATCC and maintained in IMDM and 10% fetal calf serum at 37° C., under 5% CO2 atmosphere. The cells were seeded on 96-well plate at a density of 6×10^3 cells per well. HL-60 cells were treated with a test compound dissolved in DMSO at the concentrations of zero, 0.3 μM, 0.5 μM, 1 μM, 2 μM, 3 μM, 5 μM, 10 μM, 20 μM, 30 μM, 50 μM and 100 μM for 72 hours. Treated cells were examined by CellTiter-Glo® Luminescent Cell Viability Assay Kit (Promega), and luminescence values were recorded with Envision.

K562 cells = assay: CellTiter-Glo Luminescent Cell Viability Assay on leukemia K562 cells; type: cell-based, human; settings: 72 hours, read-out: Inhibition of the viability of leukemia cells, IC50
Experimental: A: In Vitro CellTiter-Glo® Luminescent Cell Viability Assay on Leukemia K562 Cells
as §1, with “K562” for “HL-60”

Molt-4 cells = assay: CellTiter-Glo Luminescent Cell Viability Assay on leukemia Molt-4 cells; type: cell-based; settings: 72 hours, read-out: Inhibition of the viability of leukemia cells, IC50
Experimental: C: In Vitro CellTiter-Glo® Luminescent Cell Viability Assay on Leukemia Molt-4 Cells
as §1, with “leukemia Molt-4” for “leukemia HL-60”, “in RPMI-1640” for “in IMDM”, “well. […]” for “well. HL-60”

HEC-1A cells = assay: CellTiter-Glo Luminescent assay on endometrial cancer HEC-1A cells; type: cell-based, human; settings: 72 hours, read-out: Inhibition of the viability of endometrial cancer cells, IC50
Experimental: CellTiter-Glo® Luminescent Assay to Measure the Inhibitory Activity of the Compounds on In Vitro Growth of Endometrial Cancer HEC-1A Cells
as §1, with “HEC-1A cells are endometrial cancer cell lines only expressing ER-36. Human endometrial cancer HEC-1A” for “The leukemia HL-60”, “DMEM” for “IMDM”, “HEC-1A” for “HL-60”, “5” for “5 μM, 10”

CoC1 cells = assay: CellTiter-Glo Luminescent Cell Viability Assay on ovary cancer CoC1 cells; type: cell-based; settings: 72 hours, read-out: Inhibition of the viability of ovary cancer cells, IC50
Experimental: B: In Vitro CellTiter-Glo® Luminescent Cell Viability Assay on Ovary Cancer CoC1 Cells
as §1, with “ovary cancer CoC1” for “leukemia HL-60”, “Cancer hospital, Chinese Academy of Medical Sciences” for “ATCC”, “RPMI-1640” for “IMDM”, “CoC1” for “HL-60”, “10” for “10 μM, 20”

HO8910 cells = assay: CellTiter-Glo Luminescent Cell Viability Assay on ovary cancer HO8910 cells; type: cell-based; settings: HO-8910 cells; 72 hours; read-out: Inhibition of the viability of ovary cancer cells, IC50
Experimental: A: In Vitro CellTiter-Glo® Luminescent Cell Viability Assay on Ovary Cancer HO8910 Cells
as §1, with “Ovary cancer HO8910” for “The leukemia HL-60”, “Type Culture Collection of the Chinese Academy of Sciences, Shanghai,” for “ATCC”, “RPMI-1640” for “IMDM”, “HO8910” for “HL-60”

SK-OV3 cells = assay: CellTiter-Glo Luminescent Cell Viability Assay on ovary cancer SK-OV3 cells; type: cell-based; settings: read-out: Inhibition of the viability of ovary cancer cells, IC50
Experimental: C: In Vitro CellTiter-Glo® Luminescent Cell Viability Assay on Ovary Cancer SK-OV3 Cells
as §1, with “ovary cancer SK-OV3” for “leukemia HL-60”, “Cancer hospital, Chinese Academy of Medical Sciences” for “ATCC”, “RPMI-1640” for “IMDM”, “SK-OV3” for “HL-60”

Hep3B2.1-7 cells = assay: MTT assay, in vitro growth of liver cancer Hep3B2.1-7 cells; type: cell-based; settings: 72 hours
Experimental: The liver cancer Hep3B2.1-7 cells were obtained from ATCC. Cells were incubated in 1640 culture medium with 5% fetal calf serum and 100 U/ml double-antibody in a cell incubator at 37° C., 5% CO2 atmosphere and passaged via conventional methods. The sample was dissolved in DMSO, formulated into 50 mg/ml stocking solution, and stored at 4° C. The test solutions at 50, 25, 12.5 and 6.25 μg/ml were formulated with culture medium immediately before use.
The adherent cells were digested with cell digestive solution, and then the exfoliated cells were collected and counted. The cell suspension was formulated with 1640 culture medium containing 5% fetal calf serum (5.0×10^4/ml). The cell suspension was seeded on 96-well plate with 100 μl/well, and maintained in a cell incubator at 37° C., 5% CO2 atmosphere for 24 hours. After that, the compounds at various concentrations were added, where solvent was taken as negative control and Taxol as positive control. 10 μl MTT (5 mg/ml) was added after 72 hours. The supernatant was removed after cultivation for 3 hours more, 150 μl DMSO was added and the formazan was dissolved on shaking. OD values were measured at 570 nm after homogeneous mixing, and inhibition rate and IC50 values were calculated based on the mean of OD values from 3 wells.

[1] = Homo sapiens, SK-OV-3, 72 hours

IC50 (MDA-MB-231 cells; Homo sapiens, MDA-MB-231, 72 h) [µM]	IC50 (MCF7 cells; Homo sapiens, MCF7, 72 h) [µM]	IC50 (HL-60 cells; Homo sapiens) [µM]	IC50 (K562 cells; Homo sapiens) [µM]	IC50 (Molt-4 cells; Homo sapiens) [µM]	IC50 (HEC-1A cells) [µM]	IC50 (MDA-MB-231 cells; 72 hours) [µM]	IC50 (MCF7 cells; 72 hours) [µM]	IC50 (HL-60 cells) [µM]	IC50 (K562 cells) [µM]	IC50 (Molt-4 cells) [µM]	IC50 (CoC1 cells) [µM]	IC50 (HO8910 cells) [µM]	IC50 (SK-OV3 cells; [1]) [µM]	Inhibition on liver cancer cells, IC50 (Hep3B2.1-7 cells) [µg/mL]	IC50 (Hep3B2.1-7 cells; read-out: Inhibition on liver cancer cells, IC50) [µg/mL]	IC50 (SK-OV3 cells; 72 hours) [µM]	Compound
11.3 ± 0.86	10.6 ± 3.06	> 100	> 100	> 100	–	–	–	–	–	–	–	–	–	–	–	–	COc1c(-c2ccc(F)c(F)c2)oc2c(CC=C(C)C)c(O)c(CC=C(C)C)c(OC)c2c1=O [Compound 83, 2-(3,4-difluorophenyl)-7-hydroxy-3,5-dimethoxy-6,8-di(3-methyl-2-buten-1-yl)-4H-benzopyran-4-one]
–	–	–	–	–	4.02	7.06 ± 2.13	5.14 ± 0.47	> 100	> 100	> 100	–	–	–	–	–	–	COc1c(-c2ccc(C(F)(F)F)c(F)c2)oc2c(CC=C(C)C)c(O)c(CC=C(C)C)c(O)c2c1=O [Compound 6, 2-(3-fluoro-4-trifluoromethylphenyl)-5,7-dihydroxy-3-methoxy-6,8-di(3-methyl-2-butylene-1-yl)-4H-benzopyran-4-one]
17.3 ± 6.5	9.19 ± 2.47	> 100	> 100	> 100	–	–	–	–	–	–	14.3	> 100	12.6	–	–	–	COc1c(-c2cncs2)oc2c(CC=C(C)C)c(O)c(CC=C(C)C)c(O)c2c1=O [Compound 25, 2-(thiazol-5-yl)-5,7-dihydroxy-3-methoxy-6,8-di(3-methyl-2-buten-1-yl)-4H-benzopyran-4-one]
11.3 ± 1.38	6.51 ± 1.42	> 100	> 100	> 100	–	–	–	–	–	–	5.19	15.7	7.22	–	–	–	COc1c(-c2cc(F)cc(F)c2)oc2c(CC=C(C)C)c(O)c(CC=C(C)C)c(O)c2c1=O [Compound 2, 2-(3,5-difluorophenyl)-5,7-dihydroxy-3-methoxy-6,8-di(3-methyl-2-buten-1-yl)-4H-benzopyran-4-one]
–	–	–	–	–	13.8	11.9 ± 0.4	12.03 ± 0.09	> 100	> 100	14.2	–	–	–	–	–	–	COc1c(-c2ccc3nccnc3c2)oc2c(CC=C(C)C)c(O)c(CC=C(C)C)c(O)c2c1=O [Compound 18, 2-(quinoxalin-6-yl)-5,7-dihydroxy-3-methoxy-6,8-di(3-methyl-2-butylene-1-yl)-4H-benzopyran-4-one]
–	–	–	–	–	7.14	7.03 ± 1.06	6.73 ± 1.58	8.96	12	9.13	6.91	–	–	1.45	–	–	2-(-fluoro-4-chlorophenyl)-5,7-dihydroxy-3-methoxy-6,8-di(3-methyl-2-buten-1-yl)-4H-benzopyran-4-one [Compound 5]
6.37 ± 0.03	4.95 ± 0.65	10.1	8.65	10.3	–	–	–	–	–	–	–	14	6.42	–	1.38 (≈ 3.02 µM)	–	COc1c(-c2ccc(F)c(F)c2)oc2c(CC=C(C)C)c(O)c(CC=C(C)C)c(O)c2c1=O [Compound 4, 2-(3,4-difluorophenyl)-5,7-dihydroxy-3-methoxy-6,8-di(3-methyl-2-buten-1-yl)-4H-benzopyran-4-one]
–	–	–	–	–	8.35	9.91 ± 0.11	8.28 ± 2.2	15.7	12.4	13.2	–	–	–	0.00138	–	–	COc1c(-c2ccc(C(F)(F)F)cc2)oc2c(CC=C(C)C)c(O)c(CC=C(C)C)c(O)c2c1=O [Compound 15, 2-(4-trifluoromethylphenyl)-5,7-dihydroxy-3-methoxy-6,8-di(3-methyl-2-butylene-1-yl)-4H-benzopyran-4-one]
–	–	–	–	–	–	9.96 ± 1.97	8.58 ± 0.24	17.9	12.8	15.3	11.8	22.3	–	1.46	–	24.3	COc1c(-c2ccc(F)c(Cl)c2)oc2c(CC=C(C)C)c(O)c(CC=C(C)C)c(O)c2c1=O [Compound 8, 2-(3-chloro-4-fluorophenyl)-5,7-dihydroxy-3-methoxy-6,8-di(3-methyl-2-butylene-1-yl)-4H-benzopyran-4-one]
